Usually pIC50 stands for the negative decadic logarithm of the IC50, by convention in mol/L.

In ChEMBL document CHEMBL1141243, “Antioxidant and cytotoxic activities of xanthones from Cudrania tricuspidata” (Bioorg Med Chem Lett, 2005) one finds CC50, IC50 and Activity data, which are given here for ten molecules.

pIC50: −log10 of the molar value. Active and inactive are the calls of the source. No cut-off for these calls is given here.

The test system of one experiment is A549. The experiment can be described thus: Cytotoxicity against human cancer A549 cell line by MTT assay. The class given is functional. The conditions noted are these: read-out: LD50 (the source's name). (Tetrazolium assays rely on reduction of a dye to a coloured formazan, in cell work by metabolically active cells.)
A further experiment deals with AGS. Kind of experiment: Cytotoxicity against human cancer AGS cell line by MTT assay. The class given is functional. The conditions noted are these: read-out: LD50 (the source's name).
Experiment [1] relates to HL-60. Kind of experiment: Cytotoxicity against human cancer HL60 cell line by MTT assay. The class given is functional. Conditions: read-out: LD50 (the source's name).
The next experiment has as its system SK-OV-3. Kind of experiment: Cytotoxicity against human cancer SKOV3 cell line by MTT assay. The experiment is classed as functional. Conditions: read-out: LD50 (the source's name).
The next experiment deals with HT-29. The experiment can be described thus: Cytotoxicity against human cancer HT29 cell line by MTT assay. The experiment is classed as functional. The conditions noted are these: read-out: LD50 (the source's name).
Experiment [2] has as its system Radical scavenging activity. The experiment can be described thus: Superoxide radical scavenging activity of Cudriana tricuspidata extracts. The class given is functional, Maclura tricuspidata.
Experiment [3] concerns HL-60. Kind of experiment: Cytotoxic activity in HL60 by DNA fragmentation assay. The experiment is classed as functional, cell-based. Conditions: Homo sapiens.
In experiment [4] the test system is Radical scavenging activity. Kind of experiment: DPPH radical scavenging activity of Cudriana tricuspidata extracts. The experiment is classed as functional, Maclura tricuspidata.
Experiment [5] has as its system Radical scavenging activity. The experiment can be described thus: Hydroxyl radical scavenging activity of Cudriana tricuspidata extracts. The class given is functional.

`COc1cccc2c1C(=O)c1c(O)c3c(c(O)c1C2=O)C[C@@](O)(C(=O)CO)C[C@@H]3O[C@H]1C[C@H](N)[C@H](O)[C@H](C)O1` [DOXORUBICIN]: the CC50 was 1.3 µM in the experiment on A549; 1.2 µM in the experiment with AGS; 1.1 µM in the experiment on HL-60 [1]; 14.2 µM in the experiment with SK-OV-3; 1.8 µM in the experiment on HT-29.

With `C=CC(C)(C)c1c(O)cc2oc3c(CC=C(C)C)c(O)c(O)cc3c(=O)c2c1O` [CUDRAXANTHONE L], the CC50 in the experiment on A549 was 33.5 µM; in the experiment on AGS, 3.9 µM; with HL-60 [1], 8.6 µM; with SK-OV-3, 38 µM; in the experiment with HT-29, 11.4 µM. The pIC50 in experiment [2] was 4.63; in [4], 4.86; in [5] it was 4.30. For the same molecule, the outcome in the experiment on HL-60 [3] was Active.

Consider `C=CC(C)(C)c1c(OC)cc(O)c2c(=O)c3c(CC=C(C)C)c(O)c(O)cc3oc12` [CUDRAXANTHONE D], for which the CC50 with A549 was determined as 16.3 µM; in the experiment on AGS, 4.7 µM; in the experiment with HL-60 [1] it was 6.2 µM; in the experiment with SK-OV-3, 23.8 µM; with HT-29, 20.7 µM. For the same molecule, the figures for the negative logarithm of the IC50 (pIC50) in experiment [2], in [4] and in experiment [5] were 4.03, 4.76 and 4.60, respectively. In the experiment on HL-60 [3], the result was Active.

`CC(C)=CCc1c(O)c(O)cc2c(=O)c3c(O)c4c(cc3oc12)OC(C)C4(C)C` (stereo not given) [CUDRAXANTHONE M]: the CC50 in the experiment on A549 came out at 11.8 µM; in the experiment on AGS it was 4.1 µM; in the experiment on HL-60 [1], 8.2 µM; in the experiment with SK-OV-3, 14.6 µM; with HT-29, 12.1 µM. Besides, the negative logarithm of the IC50 (pIC50) was 4.59 in experiment [2], 4.98 in experiment [4] and 4.37 in experiment [5]. The outcome in the experiment on HL-60 [3] was Active.

Consider `C=CC(C)(C)c1c(O)cc(O)c2c(=O)c3c(CC=C(C)C)c(O)c(O)cc3oc12` [CUDRATRICUSXANTHONE A], for which the CC50 stood at 45.8 µM with A549; 32.8 µM in the experiment with AGS; 32.8 µM in the experiment with HL-60 [1]; 43.2 µM in the experiment with SK-OV-3; 41.4 µM in the experiment with HT-29. In addition, the pIC50 in [2] was 4.29; in experiment [4] it was 4.67; in experiment [5] it was 4.67. Moreover, in the experiment with HL-60 [3], the outcome was Active.

For `C=CC(C)(C)c1c(OC)cc(O)c2c(=O)c3ccc(O)c(O)c3oc12` [ISOCUDRANIAXANTHONE B], the CC50 in the experiment on A549 came out at 57.8 µM; in the experiment on AGS it was 43.9 µM; in the experiment with HL-60 [1] it was 45.2 µM; in the experiment on SK-OV-3 it was 71.3 µM; in the experiment with HT-29, 65 µM. Further, the pIC50 in experiment [2] is 4.53; in [4], 4.50; in experiment [5], 4.00. The outcome with HL-60 [3] was Active.

With `Cc1c(C)c2c(c(C)c1O)CCC(C)(C(=O)O)O2` (stereo not given) [TROLOX], the pIC50 in experiment [2] was 4.47; in [4] it was 4.97; in experiment [5], 4.32.

In the case of `C=CC(C)(C)c1c(O)cc(O)c2c(=O)c3c(CC=C(C)C)c(OC)c(O)cc3oc12` [CUDRAXANTHONE C], the CC50 in the experiment with A549 is 61.7 µM; in the experiment with AGS, 49.5 µM; with HL-60 [1] it was 40.8 µM; with SK-OV-3, 73.5 µM; with HT-29, 50.7 µM. Further, the pIC50 in experiment [2] is 4.07; in experiment [4], less than 3.70; in experiment [5], 4.61. The outcome with HL-60 [3] was Active.

Regarding `C=CC(C)(C)c1c(O)c(CC=C(C)C)c2oc3cc(O)c(O)cc3c(=O)c2c1O` [MACLURAXANTHONE B], the CC50 in the experiment with A549 came to 25.8 µM; in the experiment on AGS, 15.2 µM; in the experiment on HL-60 [1] it was 29.5 µM; with SK-OV-3, 23.1 µM; with HT-29, 28 µM. The negative logarithm of the IC50 (pIC50) in [2] was 4.32; in experiment [4], 4.81; in experiment [5], 4.13. Moreover, the outcome in the experiment on HL-60 [3] was Active.

For `C=CC(C)(C)c1c(O)cc(O)c2c(=O)c3cc(O)c4c(c3oc12)C=CC(C)(C)O4`, the CC50 with A549 came to 61.9 µM; in the experiment with AGS, 44.7 µM; in the experiment on HL-60 [1] it was 35.9 µM; in the experiment on SK-OV-3, 70.4 µM; in the experiment with HT-29 it was 46.3 µM. For the same molecule, the values for the pIC50 in experiment [2], in experiment [4] and in experiment [5] were 4.19, less than 3.70 and 4.26, respectively. Further, the outcome in the experiment on HL-60 [3] was Active.
